System: MV-4-11 cells
Assay: Gene expression microarray analysis (Affymetrix PrimeView) and GSEA
Type: cell-based, human
Conditions: ProbeSet 11758779_at; LIST B

Compound: Nc1ccc(-c2cccs2)cc1NC(=O)c1ccc2c(c1)cc(C1CC1)n2CCN1CCOCC1 [ACY-1035]
- RFU, TMEM50B: 85.32 RFU
